Measured values published in patent US20090275574A1, “NOVEL COMPOUNDS-300” (ASTRAZENECA AB, priority 2008, published 2009).

target: T1, hM5 (human Muscarinic receptor subtype 5) (Homo sapiens, UniProt P08912); assay: Human M5 calcium mobilization FLIPR assay; format: cell-based; conditions: hM5 expressed in CHO cells, intracellular Ca2+ release (FLIPR)
T1 construct: expressed in transfected cells; host or cells: CHO cells (ATCC)
T1 sequence (P08912 1-532): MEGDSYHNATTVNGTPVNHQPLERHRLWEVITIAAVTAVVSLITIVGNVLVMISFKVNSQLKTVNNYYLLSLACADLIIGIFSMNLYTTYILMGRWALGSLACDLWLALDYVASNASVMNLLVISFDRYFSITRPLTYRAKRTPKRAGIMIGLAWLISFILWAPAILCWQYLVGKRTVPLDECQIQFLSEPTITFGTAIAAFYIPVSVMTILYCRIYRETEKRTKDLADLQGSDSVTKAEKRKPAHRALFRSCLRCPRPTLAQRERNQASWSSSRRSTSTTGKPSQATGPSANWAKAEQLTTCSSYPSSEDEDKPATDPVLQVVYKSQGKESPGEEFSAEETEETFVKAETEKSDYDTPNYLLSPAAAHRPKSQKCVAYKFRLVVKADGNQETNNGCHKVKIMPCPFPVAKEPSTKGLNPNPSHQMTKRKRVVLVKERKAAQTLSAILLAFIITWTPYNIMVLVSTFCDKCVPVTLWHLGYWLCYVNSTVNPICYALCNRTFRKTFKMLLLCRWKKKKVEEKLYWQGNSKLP
Experimental: Human M1, rat M1, Human M3 and Human M5 Calcium Mobilization FLIPR™ Assay The compound activity in the present invention (EC50 or IC50) is measured using a 384 plate-based imaging assay that monitors drug induced intracellular Ca^2+ release in whole cells. Activation of hM1 (human Muscarinic receptor subtype 1, gene bank access NM_000738), rM1 (rat Muscarinic receptor subtype 1, gene bank access NM_080773), hM3 (human Muscarinic receptor subtype 3, gene bank access NM_000740NM_000740) and hM5 (human Muscarinic receptor subtype 5, gene bank access NM_0121258), receptors expressed in CHO cells (Chinese hamster ovary cells, ATCC) is quantified in a Molecular Devices FLIPR IITM instrument as an increase in fluorescent signal. Inhibition of hM3 and hM5 by compounds is determined by the decrease in fluorescent signal in response to 2 nM acetylcholine activation. […] Prior to experiment, the cell culture medium is removed from the plates by inversion. […] Plates are incubated at 37° C. for 60 minutes prior to start the experiment. The incubation is terminated by washing the cells four times in assay buffer, leaving a residual 25 μl buffer per well. Cell plates are then transferred to the FLIPR, ready for compound additions. The day of experiment, acetylcholine and compounds are diluted in assay buffer in three-fold concentration range (10 points serial dilution) for addition by FLIPR instrument. For all calcium assays, a baseline reading is taken for 10 seconds followed by the addition of 12.5 μl of compounds, resulting in a total well volume of 37.5 μl. Data is collected every second for 60 pictures and then every 6 seconds for 20 pictures prior to the addition of agonist. For hM3 and hM5, before agonist addition, a second baseline reading is taken for 10 seconds followed by the addition of 12.5 μl of agonist or buffer, producing a final volume of 50 μl. After agonist stimulation, the FLIPR continues to collect data every second for 60 pictures and then every 6 seconds for 20 pictures. The fluorescence emission is read using filter 1 (emission 510-570 nm) by the FLIPR on board CCD camera. Calcium mobilization output data are calculated as the maximal relative fluorescence unit (RFU) minus the minimal value for both compound and agonist reading frame (except for hM1 and rM1 using only the maximal RFU). Data are analyzed using sigmoidal fits of a non-linear curve-fitting program (XLfit version 4.2.2 Excel add-in version 4.2.2 build 18 math 1Q version 2.1.2 build 18). All pEC50 and pIC50 values are reported as arithmetic means±standard error of mean of ‘n’ independent experiments.

| Compound | EC50 [µM] |
| --- | --- |
| CCOCC1CCC(N2CCC(N3C(=O)NC[C@H]4CCCC[C@@H]43)CC2)CC1 (mixture of isomers) [Example 08, (4aR,8aS)-1-(1-(4-(ethoxymethyl)cyclohexyl)piperidin-4-yl)octahydroquinazolin-2(1H)-one] | 0.069 |
| CC(C)OCC1CCC(N2CCC(N3C(=O)CO[C@H]4CCCC[C@@H]43)CC2)CC1 (mixture of isomers) [Example 15, (4aS,8aS)-4-(1-(4-(isopropoxymethyl)cyclohexyl)piperidin-4-yl)hexahydro-2H-benzo[b][1,4]oxazin-3(4H)-one] | > 40 |
| CC(C)OCC1CCC(N2CCC(N3C(=O)NC[C@H]4CCCC[C@@H]43)CC2)CC1 (single isomer, unassigned) [Example 04] | > 40 |
| CCOCC1CCC(N2CCC(N3C(=O)CO[C@H]4CCCC[C@@H]43)CC2)CC1 (single isomer, unassigned) [Example 13] | > 40 |
| CC(C)OCC1CCC(N2CCC(N3C(=O)CO[C@H]4CCCC[C@@H]43)CC2)CC1 (single isomer, unassigned) [Example 19] | > 40 |
| O=C1CO[C@H]2CCCC[C@@H]2N1C1CCN(C2CCC(COCCF)CC2)CC1 (single isomer, unassigned) [Example 24] | > 40 |
| O=C1CO[C@H]2CCCC[C@@H]2N1C1CCN(C2CCC(COCC(F)F)CC2)CC1 (single isomer, unassigned) [Example 27] | > 40 |
| CC(C)OCC1CCC(N2CCC(N3C(=O)CO[C@H]4CCC(F)(F)C[C@@H]43)CC2)CC1 (single isomer, unassigned) [Example 37] | > 40 |
| CCOCC1CCC(N2CCC(N3C(=O)CO[C@H]4CCCC[C@@H]43)CC2)C1 (single isomer, unassigned) [Example 45] | > 40 |
| O=C1COC2CCCC2N1C1CCN([C@H]2CC[C@@H](COCC3CC3)CC2)CC1 (single isomer, unassigned) [Example 48] | > 40 |
| CCOC[C@H]1CC[C@@H](N2CCC(N3C(=O)CO[C@H]4CCCC[C@@H]43)CC2)C1 [Example 42, (4aS,8aS)-4-(1-((1R,3S)-3-(ethoxymethyl)cyclopentyl)piperidin-4-yl)hexahydro-2H-benzo[b][1,4]oxazin-3(4H)-one] | > 4.22 |
| CCOC[C@@H]1CC[C@H](N2CCC(N3C(=O)CO[C@H]4CCCC[C@@H]43)CC2)C1 [Example 43, (4aS,8aS)-4-(1-((1S,3R)-3-(ethoxymethyl)cyclopentyl)piperidin-4-yl)hexahydro-2H-benzo[b][1,4]oxazin-3(4H)-one] | > 40 |

Other lines, results leading:

| EC50 [µM] | Compound |
| --- | --- |
| > 40 | CCCOCC1CCC(N2CCC(N3C(=O)NC[C@H]4CCCC[C@@H]43)CC2)CC1 (single isomer, unassigned) [Example 01] |
| > 2.77 | CCCOCC1CCC(N2CCC(N3C(=O)NC[C@H]4CCCC[C@@H]43)CC2)CC1 (single isomer, unassigned) [Example 02] |
| > 40 | CCOCC1CCC(N2CCC(N3C(=O)CO[C@H]4CCCC[C@@H]43)CC2)CC1 (single isomer, unassigned) [Example 14] |
| > 40 | CC(C)OCC1CCC(N2CCC(N3C(=O)CO[C@H]4CCCC[C@@H]43)CC2)CC1 (single isomer, unassigned) [Example 18] |
| > 40 | O=C1CO[C@H]2CCCC[C@@H]2N1C1CCN(C2CCC(COCCF)CC2)CC1 (single isomer, unassigned) [Example 25] |
| > 40 | O=C1CO[C@H]2CCCC[C@@H]2N1C1CCN(C2CCC(COCC(F)F)CC2)CC1 (single isomer, unassigned) [Example 26] |
| > 40 | CC(C)OCC1CCC(N2CCC(N3C(=O)CO[C@H]4CCC(F)(F)C[C@@H]43)CC2)CC1 (single isomer, unassigned) [Example 38] |
| > 40 | CCOCC1CC(N2CCC(N3C(=O)CO[C@H]4CCCC[C@@H]43)CC2)C1 (single isomer, unassigned) [Example 39] |
| 2.92 | CCOCC1CCC(N2CCC(N3C(=O)CO[C@H]4CCCC[C@@H]43)CC2)C1 (single isomer, unassigned) [Example 44] |
| > 15.7 | O=C1NC[C@H]2CCCC[C@@H]2N1C1CCN(C2CCC(COCC(F)F)CC2)CC1 (single isomer, unassigned) [Example 51] |
